# Reference: patent publication US20140147434A1, “NCoR1 is a Physiological Modulator of Muscle Mass and Oxidative Function” (ECOLE POLYTECHNIQUE FEDERALE DE LAUSANNE (EPFL), priority 2011, published 2014)
# Key:
# [1] = test system: Ucp3 promoter; experiment: ChIP of endogenous NCoR1 recruitment to the Ucp3 promoter PPREs in C2C12 myotubes; format: cell-based, mouse; conditions: 6 hr after addition of 100 nM GW501516
# Excerpt: (A, B, E, F, and H) NCoR1 recruitment to the PPREs on mouse Ucp3 promoter and to the ERR-RE on human and mouse Pdk4 promoter determined by ChIP in NIH-3T3 cells transfected with an NCoR1-FLAG vector or in C2C12 myotubes. A schematic of the promoters of the Ucp3 (A) and Pdk4 (E) genes and the sequence alignment of the mouse, rat and human Pdk4 promoter is also shown to highlight the conservation of the NR1/2 (or ERR-RE) (E). Boxes indicate putative PPREs in the Ucp3 and the NR1/2, IRS, and Sp1 in the Pdk4 promoter. ChIP experiments for the Ucp3 promoter were performed in C2C12 myotubes both before and 6 hr after addition of a PPARIβ/δ (100 nM GW501516); not detected. ChIP experiments in HEK293 cells transfected with FLAG-NCoR1 and HA-ERRα vector (H). (C and G) Binding of acetylated histone 4 (H4) to the PPREs on the Ucp3 and to the NR1/2 on the Pdk4 promoters in ChIP assays, using either immortalized NCoR1^L2/L2MEFs, infected with an adenovirus either expressing GFP or Cre recombinase, or C2C12 myotubes infected with the Ad-shNCoR1 virus. Representative data is shown from 3 experiments. (D) Interaction between PPARβ/δ and NCoR1 determined by in vitro co-IP experiments from HEK293 cells, in which NCoR1-FLAG and/or V5-PPARβ/δ are expressed. […] Data are expressed as mean±SEM. […]
# [2] = test system: SMRT; experiment: SMRT mRNA in MEFs cultured with oleic acid; format: cell-based, mouse; conditions: with OA in the absence of glucose
# Procedure: The mRNA expression levels were measured in cells and tissues using qRT-PCR (Lagouge et al., 2006).
# [3] = test system: NCoR1; experiment: NCoR1 mRNA and protein in MEFs cultured with oleic acid; format: cell-based, mouse; conditions: oleic acid added to the medium (0.03 mM, 48 hr), independently of the glucose concentration
# Procedure: (A-C) Localization of NCoR1 protein was determined either by immunofluorescence and quantified (A and B) and by western blot (C). 293T cells grown without (−) or with (+) 1 µM insulin for 1 hr were stained by DAPI or anti-NCoR1 (A). Quantification of nuclear NCoR1 is shown in (B). Nuclear and cytosolic fractions were separated from FLAG-NCoR1 transfected 293T cells after a 1 hr-stimulation without (−) or with 1 μM insulin (+) and protein levels were determined by western blotting (C). (D) mRNA levels of NCoRs and its target genes determined by qRT-PCR in MEFs cultured for 24 hr in 5 or 25 mM glucose (n=6). (E) NCoR1 protein was determined by western blotting from MEFs cultured for 24 hr in 5 or 25 mM glucose. (F) NCoR1 and SMRT mRNA was determined in MEFs cultured for 48 hr in 0, 5, and 25 mM glucose. (G) NCoR1 protein was determined by western blotting from MEFs cultured for 24 hrs in 0, 5, or 25 mM glucose. […] (I) NCoR1 protein determined by western blotting from MEFs cultured as indicated in (G). (J) NCoR1 mRNA measured by qRT-PCR in muscles of resting mice or 3 hrs after an endurance run (14-wk old; n=5), in mice that were fed for 20 wks either with HFD or CD (28-wk old; n=8), in mice that were fasted or fed for 16 hrs (14-wk old; n=10), and in 6-month or 2-year old mice (n=10). […] Data are expressed as mean±SEM. […]
# [4] = test system: NCoR1; experiment: NCoR1 localization by immunofluorescence and subcellular fractionation in 293T cells; format: cell-based; conditions: one hour after stimulation with 1 μM insulin
# Procedure: (A-C) Localization of NCoR1 protein was determined either by immunofluorescence and quantified (A and B) and by western blot (C). 293T cells grown without (−) or with (+) 1 µM insulin for 1 hr were stained by DAPI or anti-NCoR1 (A). Quantification of nuclear NCoR1 is shown in (B). Nuclear and cytosolic fractions were separated from FLAG-NCoR1 transfected 293T cells after a 1 hr-stimulation without (−) or with 1 μM insulin (+) and protein levels were determined by western blotting (C). (D) mRNA levels of NCoRs and its target genes determined by qRT-PCR in MEFs cultured for 24 hr in 5 or 25 mM glucose (n=6). (E) NCoR1 protein was determined by western blotting from MEFs cultured for 24 hr in 5 or 25 mM glucose. (F) NCoR1 and SMRT mRNA was determined in MEFs cultured for 48 hr in 0, 5, and 25 mM glucose. (G) NCoR1 protein was determined by western blotting from MEFs cultured for 24 hrs in 0, 5, or 25 mM glucose. […] (I) NCoR1 protein determined by western blotting from MEFs cultured as indicated in (G). (J) NCoR1 mRNA measured by qRT-PCR in muscles of resting mice or 3 hrs after an endurance run (14-wk old; n=5), in mice that were fed for 20 wks either with HFD or CD (28-wk old; n=8), in mice that were fasted or fed for 16 hrs (14-wk old; n=10), and in 6-month or 2-year old mice (n=10). […] Data are expressed as mean±SEM.
# (A) Localization of NCoR1 is determined by the immunofluorescence experiments. […]
compound,measurement,setting,value
Cc1cc(SCc2sc(-c3ccc(C(F)(F)F)cc3)nc2C)ccc1OCC(=O)O [GW501516],recruitment of NCoR1 to the Ucp3 promoter,[1],robustly inhibited
CCCCCCCC/C=C\CCCCCCCC(=O)O [oleic acid],SMRT mRNA levels,[2],only a small difference
same,NCoR1 levels,[3],decreased
insulin,amounts of endogenous NCoR1 or transfected FLAG-NCoR1 detected in nuclei,[4],higher amounts
